According to patent US11155517B2, “4-substituted phenylamine derivatives and their use to protect crops by fighting undesired phytopathogenic micoorganisms” (PI INDUSTRIES LTD., priority 2016, dated 2021):

Key:
[1] = test system: Pyricularia oryzae; assay: microbe, parasite or virus in culture; assay type: cell-based; details: 168 h, read-out: % control compared to the untreated check (radial growth)
[2] = test system: Colletotrichum capsici; assay: Colletotrichum capsici (anthracnose) in vitro test, radial growth on Potato Dextrose Agar; assay type: cell-based; details: Colletotrichum truncatum, 168 h; 300 ppm; seven days, 25° C.; read-out: % control compared to the untreated check (radial growth)
[3] = test system: Alternaria solani; assay: Alternaria solani (early blight of tomato/potato) in vitro test, radial growth on Potato Dextrose Agar; assay type: cell-based; details: 168 h, 300 ppm, seven days, 25° C., read-out: % control compared to the untreated check (radial growth)
[4] = test system: Botrytis cinerea; assay: Botrytis cinerea (gray mold) in vitro test, radial growth on Potato Dextrose Agar; assay type: cell-based; details: 168 h, 300 ppm, seven days, 22° C., read-out: % (control) compared to the untreated check (radial growth)
[5] = test system: Botrytis cinera; assay: Greenhouse Botrytis cinera test in tomato, preventive; assay type: in vivo; details: 24 h, plants sprayed one day before inoculation, read-out: Efficacy (% control), disease severity vs untreated check
[6] = test system: Rhizoctonia solani; assay: Rhizoctonia solani (rice sheath blight/potato black scurf) in vitro test, radial growth on Potato Dextrose Agar; assay type: cell-based; details: 168 h, 300 ppm, seven days, 25° C., read-out: % control compared to the untreated check (radial growth)
[7] = test system: Fusarium culmorum; assay: Fusarium culmorum (foot rot of cereals) in vitro test, radial growth on Potato Dextrose Agar; assay type: cell-based; details: Fusarium culmorum, 168 h, read-out: % control compared to the untreated check (radial growth)
[8] = test system: Septoria lycopersici; assay: Septoria lycopersici (leaf spot of tomato) in vitro test, radial growth on Potato Dextrose Agar; assay type: cell-based; details: 168 h, seven days, 25° C., read-out: % control compared to the untreated check (radial growth)

Row | SMILES | inhibition of growth at 300 ppm [1] [%] | inhibition of growth at 300 ppm [2] [%] | inhibition of growth at 300 ppm [3] [%] | inhibition of growth at 300 ppm [4] [%] | pest or weed control at 500 ppm [5] [%] | inhibition of growth at 300 ppm [6] [%] | inhibition of growth at 300 ppm [7] [%] | inhibition of growth at 300 ppm [8] [%]
1 | CCN(C)C=Nc1cc(C)c(Cc2c(F)cccc2Cl)cc1Cl [Compound 184, N′-(2-chloro-4-(2-chloro-6-fluorobenzyl)-5-methylphenyl)-N-ethyl-N-methylformimidamide] | > 75 | > 80 | > 75 | > 80 | 70 to 100 | > 80 |  | 
2 | CCN(C)C=Nc1c(C)cc(Cc2ccc(Br)cc2)c(C)c1Br [Compound 10, N′-(2-bromo-4-(4-bromobenzyl)-3,6-dimethylphenyl)-N-ethyl-N-methylformimidamide] | > 75 | > 80 | > 75 | > 80 | 70 to 100 | > 80 |  | 
3 | CCN(C)C=Nc1cc(C)c(Cc2cccc(Cl)c2)cc1C [Compound 11, N′-(4-(3-chlorobenzyl)-2,5-dimethylphenyl)-N-ethyl-N-methylformimidamide] | > 75 | > 80 | > 75 | > 80 | 70 to 100 | > 80 | 75 | 
4 | Cc1cc(N=CN(C#N)CC#N)c(C)cc1Cc1ccccc1Cl [Compound 90, N′-(4-(2-chlorobenzyl)-2,5-dimethylphenyl)-N-cyano-N-(cyanomethyl)formimidamide] |  |  |  |  | 70 to 100 |  |  | 
5 | CCN(C)C=Nc1cc(C)c(Cc2ccccc2[S+](C)[O-])cc1C (centres unmarked) [Compound 24, N′-(2,5-dimethyl-4-(2-(methylsulfinyl)benzyl)phenyl)-N-ethyl-N-methylformimidamide] | > 75 |  | > 75 |  | 70 to 100 | > 80 |  | > 70
6 | CCN(C)C=Nc1cc(C)c(Cc2cc(Cl)cc(Cl)c2)cc1C [Compound 3, N′-(4-(3,5-dichlorobenzyl)-2,5-dimethylphenyl)-N-ethyl-N-methylformimidamide] | > 75 | > 80 | > 75 | > 80 | 70 to 100 | > 80 |  | > 70
7 | CCN(C)C=Nc1cc(C)c(Cc2cc(Cl)ccc2Cl)cc1Cl [Compound 166, N′-(2-chloro-4-(2,5-dichlorobenzyl)-5-methylphenyl)-N-ethyl-N-methylformimidamide] | > 75 | > 80 | > 75 | > 80 | 70 to 100 | > 80 |  | > 70
8 | CCN(C)C=Nc1cc(C)c(Cc2cccc(C#N)c2)cc1C [Compound 47, N′-(4-(3-cyanobenzyl)-2,5-dimethylphenyl)-N-ethyl-N-methylformimidamide] | > 75 | > 80 | > 75 | > 80 |  | > 80 | 75 | > 70
9 | CCN(C)C=Nc1cc(C)c(Cc2ccc(F)c(F)c2)cc1Cl [Compound 138, N′-(2-chloro-4-(3,4-difluorobenzyl)-5-methylphenyl)-N-ethyl-N-methylformimidamide] | > 75 | > 80 | > 75 | > 80 |  | > 80 | 75 | > 70
10 | CCN(C)C=Nc1cc(C)c(Cc2cc(C(F)(F)F)ccc2Cl)cc1C [Compound 159, N′-(4-(2-chloro-5-(trifluoromethyl)benzyl)-2,5-dimethylphenyl)-N-ethyl-N-methylformimidamide] | > 75 | > 80 | > 75 | > 80 |  | > 80 | 75 | > 70
11 | CCN(C)C=Nc1cc(C)c(Cc2ccc(C)cc2)cc1C1CC1 [Compound 222, N′-(2-cyclopropyl-5-methyl-4-(4-methylbenzyl)phenyl)-N-ethyl-N-methylformimidamide] | > 75 | > 80 | > 75 | > 80 |  | > 80 | 75 | > 70
12 | CCN(C)C=Nc1cc(C)c(Cc2ccc(Cl)c(C(F)(F)F)c2)cc1C [Compound 142, N′-(4-(4-chloro-3-(trifluoromethyl)benzyl)-2,5-dimethylphenyl)-N-ethyl-N-methylformimidamide] | > 75 | > 80 | > 75 | > 80 |  | > 80 | 75 | > 70
13 | CCN(C)C=Nc1cc(C)c(Cc2cccc(Cl)c2)cc1F [Compound 208, N′-(4-(3-chlorobenzyl)-2-fluoro-5-methylphenyl)-N-ethyl-N-methylformimidamide] | > 75 | > 80 | > 75 | > 80 |  | > 80 | 75 | > 70
14 | CCN(C)C=Nc1cc(C)c(Cc2ccccc2OC(F)(F)F)cc1Cl [Compound 102, N′-(2-chloro-5-methyl-4-(2-(trifluoromethoxy)benzyl)phenyl)-N-ethyl-N-methylformimidamide] | > 75 | > 80 | > 75 | > 80 | 70 to 100 | > 80 |  | > 70
15 | CCN(C)C=Nc1cc(C)c(Cc2cc(F)cc(C(F)(F)F)c2)cc1C [Compound 52, N-ethyl-N′-(4-(3-fluoro-5-(trifluoromethyl)benzyl)-2,5-dimethylphenyl)-N-methylformimidamide] | > 75 | > 80 | > 75 | > 80 |  | > 80 | 75 | > 70
16 | CCN(C)C=Nc1cc(C)c(Cc2ccc(C)c(F)c2)cc1Cl [Compound 139, N′-(2-chloro-4-(3-fluoro-4-methylbenzyl)-5-methylphenyl)-N-ethyl-N-methylformimidamide] | > 75 | > 80 | > 75 | > 80 |  | > 80 | 75 | > 70
17 | CCN(C)C=Nc1cc(F)c(Cc2ccccc2F)cc1C [Compound 185, N-ethyl-N′-(5-fluoro-4-(2-fluorobenzyl)-2-methylphenyl)-N-methylformimidamide] | > 75 | > 80 | > 75 | > 80 |  | > 80 | 75 | > 70
18 | CCN(C)C=Nc1cc(C)c(Cc2cc(F)cc(F)c2)cc1Cl [Compound 129, N′-(2-chloro-4-(3,5-difluorobenzyl)-5-methylphenyl)-N-ethyl-N-methylformimidamide] | > 75 | > 80 | > 75 | > 80 |  | > 80 | 75 | > 70
19 | CCN(C)C=Nc1cc(C#N)c(Cc2cccc(Cl)c2)cc1C [Compound 249, N′-(4-(3-chlorobenzyl)-5-cyano-2-methylphenyl)-N-ethyl-N-methylformimidamide] | > 75 | > 80 | > 75 | > 80 |  | > 80 | 75 | > 70
20 | CCN(C)C=Nc1cc(C)c(Cc2cccc(OC)c2)cc1C [Compound 45, N-ethyl-N′-(4-(3-methoxybenzyl)-2,5-dimethylphenyl)-N-methylformimidamide] | > 75 | > 80 | > 75 | > 80 |  | > 80 | 75 | > 70
21 | CCN(C)C=Nc1cc(C)c(Cc2cccc(C(F)(F)F)c2)cc1C [Compound 46, N′-(2,5-dimethyl-4-(3-(trifluoromethyl)benzyl)phenyl)-N-ethyl-N-methylformimidamide] | > 75 | > 80 | > 75 | > 80 |  | > 80 | 75 | > 70
